This is an account of results in paper PMC9658513, “Discovery of Compounds That Selectively Repress the Amyloidogenic Processing of the Amyloid Precursor Protein: Design, Synthesis and Pharmacological Evaluation of Diphenylpyrazoles” (International Journal of Molecular Sciences, 2022).

In series [1] the test system is p62. Description: Autophagic flux: p62 expression by Western blot. In kind it is cell-based, human. As to conditions: 24 h, compound at 3 µM, SY5Y-APP^wt cells, vs control; for fold induction at 3 µM: Homo sapiens. An excerpt:
(§1) Previous work dedicated to compounds of family C [22] has underlined the effect of our compounds on autophagic flux and the lysosomal degradation pathways. More precisely, the role of the amino side chains and their number was highlighted. Therefore, we assessed whether the activity of compounds involved the modulation of lysosomal activities toward the accumulation of APP-CTFs and AICD. Thus, we studied the effect of a selection of compounds on the autophagic flux, more particularly, we evaluated the effect of compounds 24, 33, 34, 57, 65, 67, 70, and 71 on two markers associated with autophagy: p62 and LC3-I lipidation into LC3-II. To the previous selection of efficient compounds decreasing Aβ1–x production and increasing CTFα and AICD, we added compound 65 with no cytotoxicity at 100 µM. As a comparison, we also selected compound 57 with a hydroxymethyl substituent as a control. In addition to CQ, bafilomycin A, a well-known inhibitor of autophagic flux, was used as a control. Treatment with compounds 67 and 71 induced an increase in p62 expression by 2.5 and 4-fold, respectively, compared to the control condition (Figure 3). […] An increase in the two markers was also observed with compound 57, but to a smaller extent (1.7-fold for p62 and 2-fold for LC3-I/LC3-II).
(§2) The human neuroblastoma cell line SY5Y-APP^695WT was maintained in Dulbecco’s modified Eagle medium (DMEM, high glucose, pyruvate—GIBCO, Life Technologies, Carlsbad, CA, USA) supplemented with 10% fetal bovine serum, 2 mM L-glutamine, 1 mM non-essential amino acids and penicillin/streptomycin (GIBCO, Life Technologies, Carlsbad, CA, USA) at 37 °C in a 5% CO2 humidified incubator [36]. For compound treatment, a 10 mM stock solution was diluted in freshly supplemented DMEM medium to obtain the precise final concentration of the drug. Cells were plated at a density of 5 × 10^5 cells per well into 12-well plates and cultured with 1 mL supplemented DMEM cell medium for 24 h before compound exposure. The following day, the cell medium was replaced with fresh medium containing the compounds diluted at the indicated concentrations. Cells were treated for 24 h. At the end of the treatments, the cell medium was collected and kept at −80 °C until use, cells were rinsed once with PBS and extracted in 100 µL of Laemmli buffer (10 mM Tris, 20% glycerol, and 2% sodium dodecyl sulfate) using a cell-scraper. The cell lysate was further sonicated (30 pulses of 0.5 s, 60 Hz) for 5 min. Total protein concentration was determined using the Pierce BCA Protein Assay Kit (Thermo Scientific, Waltham, MA, USA) according to the manufacturer’s instructions. Samples were stored at −80 °C until analysis.
(§3) Cell protein lysates were prepared for Western blot analysis by diluting the sample with 1 volume of NuPAGE® lithium dodecyl sulfate (LDS) 2X sample buffer supplemented with 20% NuPAGE® sample reducing agents (Invitrogen). Samples were heated for 10 min at 100 °C. Ten µg of total proteins per well were loaded onto precast 4–12% Criterion XT Bis-Tris polyacrylamide gels (Bio-Rad) and electrophoresis was achieved after applying a tension of 150 V for 90 min using a Criterion electrophoresis cell with the NuPAGE® MOPS SDS running buffer (1X). Proteins were transferred to a nitrocellulose membrane of […] pore size (G&E Healthcare, Madison, WI, USA) using the Criterion blotting system and applying a tension of 100 V for 45 min. To resolve proteins of low molecular weights such as carboxy-terminal fragments of APP, 12% Criterion XT Bis-Tris polyacrylamide gels (Bio-Rad, Hercules, CA, USA) were used, and electrophoresis was performed for 70 min at 150 V in a NuPAGE® MES SDS running buffer (1X). Proteins were transferred to a nitrocellulose membrane of 0.2 µm pore size (G&E Healthcare, Madison, WI, USA) at 100 V for 40 min. Molecular weight calibration was achieved using molecular weight markers (Novex and Magic Marks, Life Technologies, Carlsbad, CA, USA). […]

In series [2] the test system is LC3. Description: Autophagic flux: LC3-I lipidation into LC3-II by Western blot. It is filed as cell-based. As to conditions: Homo sapiens, 24 h, compound at 3 µM, SY5Y-APP^wt cells, vs control.
Source text: as §1, §2, §3
For orientation: In western blotting, separated proteins are transferred to a membrane and probed.

Series [3] concerns sAPPβ secretion. Description: sAPPβ secretion (MSD sAPPα/sAPPβ Multiplex Kit). In kind it is cell-based, human. As to conditions: SY5Y cells, mean ± SD of at least three experiments in triplicate. How it is done: (§4) A selection of compounds with several selected activities was performed including sAPPα and sAPPβ, which were further explored. […] The decrease in Aβ could result from a decrease in either β- or γ-secretase cleavage or an increase in the α-secretase cleavage of APP. Thus, medium concentrations of sAPPβ and sAPPα, which are the β- and α-secretase extramembrane shed APP fragments, were determined after cell drug treatments.
as §2
Conditioned media of SY5Y-APP^695WT collected at the end of treatments were centrifuged at 1000× g for 5 min to eliminate cell debris.
(§5) Aβ1–40/Aβ1–42 peptides, Aβx–38/Aβx–40/Aβx–42, and sAPPα/sAPPβ concentrations in pg/mL were determined, respectively, using amyloid-beta 40 and 42 Human ELISA Kits (Invitrogen), the V-PLEX Plus Aβ Peptide Panel 1 (4G8) Kit (Meso Scale Diagnostics, MSD R©, Rockville, MD, USA), and the sAPPα/sAPPβ Multiplex Kit (Meso Scale Diagnostics, MSD R©, Rockville, MD, USA) according to the manufacturer’s instructions.

Series [4] concerns sAPPα. Put plainly: sAPPα secretion (MSD sAPPα/sAPPβ Multiplex Kit). It is filed as cell-based, human. As to conditions: concentration increasing sAPPα 1.5-fold vs untreated control. How it is done:
as §4
as §2, with “The cell lysate was further sonicated (30 pulses of 0.5 s, 60 Hz) for 5 min.” left out, “Samples were stored at −80 °C until analysis.” left out
as §5

Series [5] relates to SY5Y-APP^695WT cells. Put plainly: in vitro. In kind it is cell-based, human. In outline: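 Cells seeded at 3 × 10^4 per well, attached 24 h, then exposed to drug for 72 h in DMEM with 10% SVF. Viability by MTS colorimetric assay, absorbance at 490 nm.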

With `CN(C)CCCc1ccc(-c2nn(-c3ccc(CN(C)C)cc3)cc2CN(C)C)cc1` [Compound 24, 3-[4-[4-(Dimethylaminomethyl)-1-[4-(dimethylaminomethyl)phenyl] Pyrazol-3-yl]phenyl]-N,N-dimethyl-propan-1-amine], the fold induction (commonly the signal under treatment as a multiple of the control signal) at 3 µM in series [1] came to 1.64; in series [2], 3.3.

For the compound `Cc1cn(-c2cccc(CO)c2)nc1-c1ccc(CN(C)CCCN(C)C)cc1` [Compound 57, (3-{3-[4-({[3-(Dimethylamino)propyl](methyl)amino}methyl)phenyl]-4-methyl-1H-pyrazol-1-yl}phenyl)methanol], the values for the fold induction at 3 µM in series [1] and in series [2] were 1.7 and 2, respectively.

`Cc1cn(-c2cccc(CN3CCN(C)CC3)c2)nc1-c1cccc(CN(C)C)c1` [Compound 65, N,N-dimethyl-1-[3-[4-methyl-1-[3-[(4-methylpiperazin-1-yl)methyl]phenyl]pyrazol-3-yl]phenyl]methanamine]: the figures for the fold induction at 3 µM in series [1] and in series [2] were 1.64 and 2.63, respectively.

On to `Cc1cn(-c2cccc(CN(C)C)c2)nc1-c1ccc(CN(C)CCCN(C)C)cc1` [Compound 67, {[4-(1-{3-[(Dimethylamino)methyl]phenyl}-4-methyl-1H-pyrazol-3-yl)phenyl]methyl} [3-(Dimethylamino)propyl]methylamine], for which the results for the fold induction at 3 µM in series [1] and in series [2] were 2.5 and 5.2, respectively. The IC50 (commonly the concentration at which inhibition is half-maximal) in series [3] (Homo sapiens) was 3.2 ± 1.4 µM.

On to `Cc1cn(-c2cccc(CN(C)C)c2)nc1-c1cccc(CN(C)CCCN(C)C)c1` [Compound 70, N′-[[3-[1-[3-(Dimethylaminomethyl)phenyl]-4-methyl-pyrazol-3-yl]phenyl] Methyl]-N,N,N′-trimethyl-propane-1,3-diamine], for which the fold induction at 3 µM in series [1] was determined as 3; in series [2], 6.

`Cc1cn(-c2cccc(CN3CCN(C)CC3)c2)nc1-c1cccc(CN(C)CCCN(C)C)c1` [Compound 71, N,N,N′-Trimethyl-N′-[[3-[4-methyl-1-[3-[(4-methylpiperazin-1-yl)methyl]phenyl]pyrazol-3-yl]phenyl]methyl]propane-1,3-diamine]: the fold induction at 3 µM in series [1] came to 4; in series [2] it was 6.5. The IC50 in series [3] (Homo sapiens) was 4 ± 0.4 µM.

Turning to “N′-[[4-[4-[3-(Dimethylamino)propyl]-3-[4-[3-(dimethylamino)propyl]phenyl] Pyrazol-1-yl]phenyl]methyl]-N,N,N′-trimethyl-propane-1,3-diamine [Compound 33]”, in series [1], the p62 was determined as 1.04 Fold-change. Moreover, the “sAPPα C1.5” value in series [4] is more than 10 µM. Moreover, in series [5], the half-maximal cytotoxic concentration (CC50) (usually the concentration giving 50% cytotoxicity) is more than 100 µM and the “Cytotox. CC50” value came out at 100 µM. The IC50 in series [3] came out at 6.8 ± 0.3 µM.
